# According to patent US20260242359A1, “IRHOM2 INHIBITORS AND USES THEREOF” (NEW YORK SOCIETY FOR THE RELIEF OF THE RUPTURED AND …, priority 2023, published 2026):
# System: PMA-induced release of endogenous HB-EGF from human THP-1 macrophage cells
# Test: Example 15: ELISA-based HB-EGF release assay, PMA-induced, THP-1 macrophage cells
# Type: cell-based
# Conditions: THP-1, 10 μM final concentration, PMA 25 ng/ml, 23 hours, delta Buffer stimulated vs unstimulated = 100% inhibition, read-out: inhibition of PMA-induced release of HB-EGF from THP-1 cells
# Method: In the following study, ELISA-based HB-EGF release assays were performed to analyze the inhibitory effects of Compounds 1, 2, 3, 4, 5, and 7 on PMA-induced release of endogenous HB-EGF from human THP-1 macrophage cells. The ELISA-based HB-EGF release assay that was used in this example is described below.
# In brief, on day 1, Nunc black MaxiSorp® 96-well plates (Thermo Fisher Scientific, USA) were coated overnight with 100 μl per well of mouse anti-human HB-EGF capture antibody (provided as part of the DuoSet ELISA kit) at 2 μg/ml TBS at 4° C.
# 40,000 THP-1 cells (American Type Culture Collection, USA) cells in 80 μl of normal growth medium were seeded in each well of Greiner CELLSTAR V-bottom 96-well plates (Greiner Bio-One, Germany) and pre-incubated with 20 μl per well of standard growth medium supplemented with Batimastat (BB94, Abcam, UK) at 50 μM as positive control (for a final concentration of 10 μM in the resulting 100 μl sample volume), compounds of the invention at 50 μM (for a final concentration of 10 μM in the resulting 100 μl sample volume) and in case of Buffer stimulated and unstimulated controls with DMSO (Carl Roth, Germany) at 50 μM (for a final concentration of 10 μM in the resulting 100 μl sample volume) at 37° C., 5% CO2 for 30 minutes. Subsequently, cells (except those for unstimulated controls) were stimulated with 20 μl per well of PMA (Sigma-Aldrich, USA) at 150 ng/ml in growth medium for a final concentration of 25 ng/ml at 37° C., 5% CO2 for 23 hours.
# On day 2, the capture antibody solution was removed and MaxiSorp® plates were blocked with 300 μl per well of TBS, 1% BSA at room temperature for 1-2 hours. Meanwhile, the 96-well plates were centrifuged to pellet cells. In parallel, blocking buffer was removed from the MaxiSorp® plates and plates were washed 4 times with 350 μl TBS-T (Carl Roth, Germany) per well on a 96-head plate washer (Tecan Group, Switzerland). To avoid drying-up, 30 μl TBS were added to each well of the MaxiSorp® plates immediately, followed by the transfer of 70 μl cell-free supernatant per sample. Additionally, 100 μl recombinant human HB-EGF protein (provided as part of the DuoSet ELISA kit) diluted in TBS at defined concentrations were added to the plate as standard references. Plates were incubated at room temperature for 2 hours. After 4 times washing with 350 μl TBS-T (Carl Roth, Germany) per well on a 96-head plate washer (Tecan Group, Switzerland) and careful removal of all buffer traces after the fourth cycle, 100 μl biotinylated goat anti-human HB-EGF detection antibody (provided as part of the DuoSet ELISA kit) at 50 ng/ml TBS were added per well and, protected from direct light, plates were incubated at room temperature for 2 hours.
# After 4 times washing with 350 μl TBS-T (Carl Roth, Germany) per well on a 96-head plate washer (Tecan Group, Switzerland) and careful removal of all buffer traces after the fourth cycle, 100 μl streptavidin-AP (R&D Systems, USA) diluted 1:10,000 in TBS were added to each well and, again protected from direct light, plates were incubated at room temperature for 30 minutes. Following another round of 4 times washing with 350 μl TBS-T (Carl Roth, Germany) per well on a 96-head plate washer (Tecan Group, Switzerland) and careful removal of all buffer traces after the fourth cycle, 100 μl AttoPhos substrate solution (Promega, USA) per well was added for incubation in the dark at room temperature for 1 hour. Using an infinite M1000 (Tecan Group, Switzerland) microplate reader, the fluorescence of each well was collected at an excitation wavelength of 435 nm and an emission wavelength of 555 nm.
# The delta between Buffer stimulated and Buffer unstimulated was defined 100% inhibition.
row,Structure (SMILES),inhibition at 10 µM [%]
1,"CNC(=O)[C@H](Cc1ccccc1)NC(=O)[C@H](CC(C)C)[C@H](CSc1cccs1)C(=O)NO [Batimastat, reference compound]",99.2
2,CCOC(=O)c1ccc(Nc2nc3nonc3n3nnnc23)cc1 [Compound 2],77.5
3,O=C(c1c(Cl)cccc1Cl)N1CCC(Cc2ccc(F)cc2)CC1 [Compound 3],29.6
4,Cc1c(C(=O)NCc2cccs2)sc(=O)n1Cc1ccccc1 [Compound 4],62.5
5,Cc1c(C(=O)NCc2cccs2)sc(=O)n1Cc1ccccc1F [Compound 5],55.1
6,Cc1c(C(=O)NCc2ccco2)sc(=O)n1Cc1ccccc1F [Compound 7],95.1

# Same assay, conditions: THP-1, 23 h, read-out: inhibition of PMA-induced release of HB-EGF from THP-1 cells
row,Structure (SMILES),inhibition at 10 µM [%]
1,CCC(=O)NCCc1c(/C=C2/C(=O)NC(=O)N(c3ccc(C)cc3C)C2=O)[nH]c2ccccc12 [Compound 1],95.4
